{"source": "patent US20050124554A1", "about": "“Spermidine derivatives for the treatment of chronic neurodegenerative diseases” (priority 2002, published 2005)", "key": {"[1]": {"tested_on": "acute hippocampal slices (CA1 pyramidal cell layer, Schaffer collateral stimulation)", "assay": "Electrophysiology: evoked field responses / synaptic transmission", "parameters": "species or system Sprague-Dawley rats", "description": "All animal procedures to produce acute hippocampal slices were approved by the Home Office. Male, 250 g, Sprague-Dawley rats were deeply anaesthetised with halothane and decapitated. The brain was quickly removed, and the hippocampi dissected out and then cut into 300 μm thick transverse slices on a vibratome (Leica, Milton Keynes, UK) in cold cutting solution (in mM: 189 sucrose, 2.5 KCl, 26 NaHCO3, 1.2 NaH2PO4, 10 glucose, 5 MgCl2, 0.1 CaCl2) equilibrated with 5% CO2, 95% O2. Slices were transferred to aCSF (in mM: 10 glucose, 125 NaCl, 5 KCl, 26 NaHCO3, 1 MgCl2, 1.25 NaH2PO4, 2 CaCl2, 10 sucrose) at room temperature, bubbled with 5% CO2 and 95% O2, for at least 1 h before use.\nSlices were then transferred to a submerged perfusion chamber (2 ml volume) for the electrophysiological recordings and were perfused at 10 ml min^−1 at 25° C. with aCSF equilibrated with 5% CO2 and 95% O2, and allowed to equilibrate for 1 h before manipulations were started. Experimental compounds were applied by bath perfusion. L-Arg3,4 was applied at 300 μM and DNQX was applied at 10 μM final concentration. DNQX was diluted from a 40 mM stock in DMSO (final DMSO of 0.025%). The Schaffer collaterals of CA3 were stimulated at voltages from 0 to 30 V with a constant voltage stimulator (Digitimer, Hertfordshire, UK) via a twisted pair stimulating electrode of polyimide coated stainless steel wire (Plastics One, Roanoke, Va.). Field potential responses were recorded with an Axopatch 200B amplifier (Axon Instruments, Foster City, Calif.) in the fast current clamp mode via a 2M KCl filled glass electrode (2-5 MQ) in the CA1 pyramidal cell layer. Responses were filtered at 2 kHz, digitised at 20 kHz with a Digidata 1320A (Axon Instruments), and stored onto hard disk with Clampex 8.1 software (Axon Instruments) running on a Dell Pentium III PC. Data was analysed in Clampfit 8.1 (Axon Instruments).\nStimulus-response (S/R) curves were generated from stimuli from 0 to 30 V in 2 V increments. Bath perfusion of 300 μM L-Arg3,4 in aCSF was applied for 10 min with a sub-maximal stimulus applied every minute to monitor synaptic transmission. A second S/R curve was generated before the perfusion was switched back to plain aCSF. A sub-maximal stimulus was applied every minute during the 15 min wash period after which a third SIR curve was generated. Perfusion of 10 μM DNQX was then started until the response to the sub-maximal stimulus was completely eliminated which always occurred within 10 min. […] In Clampfit, S/R curves were fit to a sigmoidal function of the form: [formula] where R is the magnitude of the evoked response, Rmax is the maximum response, V50 is the voltage which produces a half maximal response, S is the stimulus voltage, and m is proportional to the slope of the linear region of the sigmoid. Data was compared by one way ANOVA."}, "[2]": {"tested_on": "superoxide production in organotypic slice cultures (CA1 pyramidal cell layer)", "assay": "Superoxide production monitored fluorescently with hydroethidine (HEt)", "assay_type": "cell-based, Wistar rat", "protocol": "Hydroethidine (HEt) has been utilised to fluorescently monitor the production of superoxide in primary neuronal cultures [Bindokas et al., (1996), Carriedo et al. (1998)]. A stock solution of HEt was made was made in N2 sparged DMSO (10 mg ml^−1) which was then aliquoted and stored at −80° C. aliquots were used only once before being discarded. Two separate experimental paradigms were employed to test the effect of L-Arg3,4 on superoxide production in response to either AMPA or NMDA stimulation.\nFor the AMA experiments, organotypic slice cultures were loaded with 1 μg ml^−1 HEt in HEPES buffered salt solution (HSS) (in mM): glucose 10, NaCl 144, KCl 5, HEPES 10, MgCl2 1, CaCl2 2, pH 7.4, for 30 minutes in the dark. All subsequent solutions contained HEt to prevent a decrease in signal due to reporter depletion. Images were acquired once per minute for the duration of the experiment on the same system as described above for assessment of cell death. A 10 minute record of baseline superoxide production was produced before the bathing solution was exchanged for HBSS+BEt containing 10 μM AMPA, again for 10 minutes. As shown previously, stimulation of glutamate receptors with AMPA lead to an increase in superoxide production [Bindokas et al., (1996), Carriedo et al. (1998)]. The bathing solution was then exchanged for HBSS+HEt containing both 10 μM AMPA and 300 μM L-Arg3,4 for 10 minutes to test the effect of L-Arg3,4 on superoxide production. In separate control experiments, 300 μM L-Arg3,4 in HSS was incubated with slices to determine if it affected baseline superoxide production on its own.\nAcquired images from the AMPA experiments were then analysed with the OpenLab image analysis package. A region of interest was drawn around the CA1 pyramidal cell layer because this was the cell layer that produced the largest increase in fluorescence in response to AMPA activation. In each image, within the region of interest, the average pixel value was calculated in arbitrary units (AU) to produce a record of fluorescence intensity values over time. A linear regression was then performed on the data to calculate the rate of superoxide production as change in intensity over time (arbitrary units per minute, AU min^−1) for each of the treatments. Data is presented as mean±s.d. Rates of superoxide production were then compared by ANOVA followed by post-hoc comparisons with Bonferroni corrections with significance indicated as * for P<0.05 and ** for P<0.01."}, "[3]": {"settings": "previous studies, WO99/31049; cited from earlier work"}, "[4]": {"settings": "during bath perfusion of 300 μM, n=6"}}, "data": [{"smiles": "N=C(N)NCCCC(N)C(=O)NCCCNCCCCN", "note": "[L-Arg3,4, L-arginyl-3,4-spermidine]", "values": [{"measurement": "effect on evoked responses", "setting": "[1]; bath application, L-Arg3,4 300 μM, DNQX 10 μM", "result": "had no effect on evoked responses"}, {"measurement": "Rmax (maximum evoked response, S/R curve fit)", "setting": "[1]; [4]", "result": "2.71 ± 1.31", "unit": "mV"}, {"measurement": "V50 (voltage producing half maximal response)", "setting": "[1]; [4]", "result": "15.98 ± 5.12", "unit": "V"}, {"measurement": "m (proportional to slope of sigmoid)", "setting": "[1]; [4]", "result": "0.59 ± 0.48"}, {"measurement": "rate of baseline superoxide production", "setting": "[2]; 300 μM compound alone, no AMPA", "result": "2.55±2.02", "unit": "AU min^−1"}, {"measurement": "rate of superoxide production", "setting": "[2]; 300 μM compound in continued presence of 10 μM AMPA", "result": "5.07±1.94", "unit": "AU min-d"}, {"measurement": "effect on blood pressure, heart rate, respiration, motor function", "setting": "[3]", "result": "did not affect blood pressure, heart rate or respiration, or result in adverse motor function"}]}]}
